Read-outs that look alike come from different tables or passages of the source. Where a SMILES comes first, the peptide text is derived from it. Where no end group is shown, it is not given here.
Legend:
RAW264.7 cells = assay: Cell viability (MTT), direct effects, RAW264.7; format: cell-based, mouse; settings: RAW264.7, 1–100 µM, 24 h
Protocol: (§1) Cell viability was determined using the MTT assay. […] Samples were analyzed in triplicate.

[1] = biological target: T1, angiotensin-converting enzyme (ACE) (Oryctolagus cuniculus, UniProt P12822); assay: ACE-inhibitory activity, fluorescence assay with Abz-Gly-Phe(NO2)-Pro; format: biochemical
T1 sequence (P12822 34-1310): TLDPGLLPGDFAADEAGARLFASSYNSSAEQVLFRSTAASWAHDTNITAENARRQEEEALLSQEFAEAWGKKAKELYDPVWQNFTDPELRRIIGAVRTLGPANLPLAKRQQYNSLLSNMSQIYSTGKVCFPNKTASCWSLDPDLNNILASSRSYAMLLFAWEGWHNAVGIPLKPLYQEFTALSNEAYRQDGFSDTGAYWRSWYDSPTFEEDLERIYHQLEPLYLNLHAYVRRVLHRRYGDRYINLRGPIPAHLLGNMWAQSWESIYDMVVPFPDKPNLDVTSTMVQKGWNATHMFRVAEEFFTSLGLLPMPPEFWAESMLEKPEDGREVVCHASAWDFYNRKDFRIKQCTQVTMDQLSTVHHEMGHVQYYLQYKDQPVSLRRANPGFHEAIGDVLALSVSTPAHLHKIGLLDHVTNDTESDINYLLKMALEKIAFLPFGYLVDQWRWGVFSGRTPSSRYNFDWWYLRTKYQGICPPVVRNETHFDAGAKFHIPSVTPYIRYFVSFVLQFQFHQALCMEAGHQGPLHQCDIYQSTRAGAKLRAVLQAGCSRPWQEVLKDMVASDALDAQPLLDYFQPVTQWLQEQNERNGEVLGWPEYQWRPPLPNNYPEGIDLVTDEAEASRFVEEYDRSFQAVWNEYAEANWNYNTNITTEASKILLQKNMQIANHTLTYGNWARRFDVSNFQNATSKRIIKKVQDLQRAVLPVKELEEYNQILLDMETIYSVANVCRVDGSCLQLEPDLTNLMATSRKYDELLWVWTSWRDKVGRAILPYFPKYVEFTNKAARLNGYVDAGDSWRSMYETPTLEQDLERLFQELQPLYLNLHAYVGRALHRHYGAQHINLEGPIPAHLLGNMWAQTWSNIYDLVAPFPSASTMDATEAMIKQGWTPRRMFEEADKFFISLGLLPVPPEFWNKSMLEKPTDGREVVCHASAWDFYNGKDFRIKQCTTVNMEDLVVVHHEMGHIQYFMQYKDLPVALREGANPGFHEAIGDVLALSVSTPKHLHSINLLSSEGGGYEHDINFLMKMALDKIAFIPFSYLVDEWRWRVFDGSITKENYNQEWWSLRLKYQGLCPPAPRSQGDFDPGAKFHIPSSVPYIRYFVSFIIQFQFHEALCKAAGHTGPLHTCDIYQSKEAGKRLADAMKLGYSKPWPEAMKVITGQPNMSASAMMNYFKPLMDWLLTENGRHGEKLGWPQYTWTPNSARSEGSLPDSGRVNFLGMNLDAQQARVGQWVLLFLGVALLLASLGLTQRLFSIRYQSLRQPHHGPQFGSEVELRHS
Protocol: ACE (1 U/mL) was diluted (0.04 U/mL) in 150 mM Tris buffer containing 0.1 μM ZnCl2 (pH 8.3). Forty microliters of sample (or MilliQ water for blank and control) were added to a black multi-well plate (Porvair, Leatherhead, UK). Then, 40 μL of ACE were added, and the reaction started after the addition of 160 μL of the substrate. The plate was incubated at 37 °C for 30 min, and the fluorescence was measured in a FLUOstar OPTIMA plate reader (BMG Labtechnologies GmbH, Offenburg, Germany) with 320 nm excitation and 420 nm emission filters.

macrophages RAW264.7 = settings: RAW264.7 stimulated with 0.25 mM t-BOOH, pre-treated with 25 µM; stimulated cells alone 70.97%
Protocol: The human colorectal adenocarcinoma Caco-2 and the mouse macrophage RAW 264.7 cell lines were obtained from the American Type Culture Collection (ATCC, Rockville, MD, USA). Caco-2 and RAW264.7 cells were grown in High-Glucose DMEM supplemented with 10% (v:v) FBS, 1% (v:v) penicillin/streptomycin/amphotericin B, and 1% (v:v) non-essential amino acids solution. Cells were maintained in plastic 75-cm^2 culture flasks at 37 °C in a humidified incubator containing 5% CO2 and 95% air.
Cells were incubated for 24 h with various concentrations of selected synthetic peptides. To evaluate both the direct and protective effects against oxidative stress, the incubation period was followed by 1.5 h-treatment with culture medium or tert-butyl hydroperoxide (t-BOOH, 1 mM for Caco-2 cells and 0.25 mM for RAW264.7 cells), respectively, and different biomarkers were evaluated.
Cell viability was determined using the MTT assay. Caco-2 and RAW264.7 cells were seeded onto 96-well plates (Corning Costar Corp., Corning, NY, USA) at a density of 1.0 × 10^4 cells/cm^2 and incubated for 9 days and 24 h, respectively. […] The supernatant was aspirated, the formazan crystals were solubilized in DMSO:ethanol (1:1, v:v), and the absorbance was measured at 570 nm in a FLUOstar OPTIMA plate reader (BMG Labtech). Results were expressed as percentage of the control, considered as 100%. Samples were analyzed in triplicate.

Caco-2 cells = assay: Cell viability (MTT), direct effects, Caco-2; format: cell-based, human; settings: Caco-2, 1–100 µM, 24 h
Protocol: as §1

[2] = Oxygen radical absorbance capacity (ORAC)-FL assay; settings: mean ± SD
Protocol: An oxygen radical absorbance capacity (ORAC)-FL assay was used based on the protocol previously optimized. The reaction was performed at 37 °C in 75 mM phosphate buffer (pH 7.4). The final assay mixture volume was 200 µL, containing 70 nM FL, 12 mM AAPH, and antioxidant [(Trolox, 1–8 µM) or sample (at different concentrations)]. Fluorescence was measured during 137 min in a FLUOstar OPTIMA plate reader (BMG Labtech) with 485 nm excitation and 520 nm emission filters. The equipment was controlled by the FLUOstar Control ver. 1.32 R2 software for fluorescence measurement. Samples were analyzed in triplicate. The final ORAC-FL value was expressed as μmol Trolox equivalents (TE) per μmol peptide.

ABTS assay (TEAC) = settings: mean ± SD
Protocol: Antioxidant activity was measured using a previously optimized method with some modifications. A mixture of 7 mM ABTS stock solution and 2.45 mM potassium persulfate was kept in the dark at room temperature for 12-16 h to form the ABTS radical cation (ABTS^•+). The ABTS^•+ solution was diluted in 5 mM of phosphate buffer solution (PBS) (pH 7.4) to an absorbance of 0.70 ± 0.02 at 734 nm at 30 °C. Two mL of diluted ABTS^•+ solution were mixed with 20 μL of sample or Trolox (0–0.015 μmol), and the absorbance was recorded at 734 nm after 10 min incubation at 30 °C. The Trolox equivalent antioxidant capacity (TEAC) value was expressed as μmol TE per μmol peptide. Each sample was analyzed in triplicate.

[3] = parameters: method as in doi:10.1007/s13594-015-0226-5; settings: MBPDB; cited from earlier work
[4] = parameters: method as in PMID 10908049; settings: BIOPEP-UWM; cited from earlier work
[5] = biological target: dipeptidyl peptidase IV (DPP-IV); settings: MBPDB; read-out: Antidiabetic IC50, DPP-IV inhibition; cited from earlier work
murine splenocytes = tested on: murine splenocytes; parameters: method as in doi:10.1016/j.idairyj.2010.02.013; settings: MBPDB; cited from earlier work
[6] = biological target: T1, angiotensin-converting enzyme (ACE); settings: BIOPEP-UWM; read-out: ACE inhibitory IC50; cited from earlier work
[7] = biological target: opioid, (3H)-naloxone binding; settings: database value; read-out: Opioid agonist IC50, inhibition of (3H)-naloxone binding; cited from earlier work
mucin secretion = settings: MBPDB; cited from earlier work
[8] = highest peptide concentration analyzed 1000 µM, read-out: ACE Inhibitory Activity (IC50-µM), symbol

## C[C@@H](O)[C@H](NC(=O)[C@H](Cc1c[nH]c2ccccc12)NC(=O)[C@@H]1CCCN1C(=O)[C@@H](N)Cc1ccc(O)cc1)C(=O)O [YPWT] (H-YPWT-OH)
RAW264.7 cells
  Cell viability, direct effect: did not evoke changes in cell viability
[1]; [8]
  IC50: > 1000 µM
Macrophages RAW264.7
  Percentage of viable cells (% control): 79.58%
Caco-2 cells
  Cell viability, direct effect: did not evoke changes in cell viability

## CC(C)C[C@H](NC(=O)[C@H](CC(C)C)NC(=O)[C@@H](N)Cc1ccc(O)cc1)C(=O)O [YLL] (H-Tyr-Leu-Leu-OH; N-terminus and C-terminus assumed)
[2]
  Antioxidant Activity ORAC: 0.78 ± 0.03 µmol TE/µmol peptide
[1]; mean ± SD, read-out: ACE Inhibitory Activity (IC50-µM)
  IC50: 518.5 ± 3.5 µM
ABTS assay (TEAC)
  Antioxidant Activity TEAC: 2.55 ± 0.29 µmol TE/µmol peptide
[3]
  FRAP: FRAP = 81.76 mmol Fe/mol peptide **

## C[C@@H](O)[C@H](NC(=O)[C@H](Cc1c[nH]c2ccccc12)NC(=O)[C@@H]1CCCN1)C(=O)O [PWT] (H-Pro-Trp-Thr-OH; N-terminus and C-terminus assumed)
[4]
  Linoleic acid peroxidation (antioxidant): Inhibition of linoleic acid peroxidation *
[2]
  Antioxidant Activity ORAC: 2.15 ± 0.07 µmol TE/µmol peptide
[1]; [8]
  IC50: > 1000 µM
ABTS assay (TEAC)
  Antioxidant Activity TEAC: 0.73 ± 0.07 µmol TE/µmol peptide

## YPFPGPIPN
[5]
  IC50: 6.7 µM
[2]
  Antioxidant Activity ORAC: 1.26 ± 0.06 µmol TE/µmol peptide
ABTS assay (TEAC)
  Antioxidant Activity TEAC: 1.22 ± 0.17 µmol TE/µmol peptide

## YLLF (UniProt P02754 118-121, looked up, fragment) [synthetic peptide, β-Lg f(102–105)]
[2]
  Antioxidant Activity ORAC: 0.91 ± 0.04 µmol TE/µmol peptide
Murine splenocytes
  Stimulation of murine splenocytes (listed as cytotoxic): Stimulation of murine splenocytes **
[6]
  IC50: 172 µM
[7]
  IC50: 160 µM
ABTS assay (TEAC)
  Antioxidant Activity TEAC: 1.96 ± 0.30 µmol TE/µmol peptide
Mucin secretion
  Mucin secretion (opioid agonist): Stimulation of mucin secretion **

From article PMC7466261, “In Silico and In Vitro Analysis of Multifunctionality of Animal Food-Derived Peptides” (Foods, 2020)
